Experimental data taken from US20230017045A1, “PYRIDINE AND PYRIMIDINE CARBOXYLATE HERBICIDES AND METHODS OF USE THEREOF” (Dow AgroSciences LLC, priority 2017, published 2023).
Read-outs that look alike come from different tables or passages of the source.

Tested on: test plant species
Experiment: Post-emergent herbicidal activity test (greenhouse, foliar spray, visual growth reduction)
Assay type: in vivo
Details: post-emergence, 336 h, 140 g ai/ha
In short: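 Greenhouse plants at first–second true leaf stage sprayed overhead at 187 L/ha with compound in acetone/water/isopropanol/DMSO/crop oil/X-77 carrier; controls received solvent blank. Injury rated visually after 14 d on a 0–100% scale versus untreated and control plants, converted to growth reduction.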

[1] = ECHCG: barnyardgrass (Echinochloa crus-galli), 14 days after application, read-out: Visual Growth Reduction (%) 14 Days After Application, ECHCG
[2] = IPOHE: ivy-leaf morning glory (Ipomoea hederacea), 14 days after application, read-out: Visual Growth Reduction (%) 14 Days After Application, IPOHE
[3] = KCHSC: kochia (Bassia scoparia), 14 days after application, read-out: Visual Growth Reduction (%) 14 Days After Application, KCHSC
[4] = ORYSA: rice (Oryza sativa), 14 days after application, read-out: Visual Growth Reduction (%) 14 Days After Application, ORYSA
[5] = SETFA: giant foxtail (Setaria faberi), 14 days after application, read-out: Visual Growth Reduction (%) 14 Days After Application, SETFA
[6] = SORVU: grain sorghum (Sorghum vulgare), 14 days after application, read-out: Visual Growth Reduction (%) 14 Days After Application, SORVU
[7] = STEME: common chickweed (Stellaria media), 14 days after application, read-out: Visual Growth Reduction (%) 14 Days After Application, STEME
[8] = TRZAS: wheat, spring (Triticum aestivum), 14 days after application, read-out: Visual Growth Reduction (%) 14 Days After Application, TRZAS
[9] = blackgrass (Alopecurus myosuroides), 14 Days After Application, read-out: Visual Growth Reduction (%) ALOMY
[10] = canada thistle (Cirsium arvense), 14 Days After Application, read-out: Visual Growth Reduction (%) CIRAR
[11] = crabgrass (Digitaria sanguinalis), 14 Days After Application, read-out: Visual Growth Reduction (%) DIGSA
[12] = lambsquarters (Chenopodium album), 14 Days After Application, read-out: Visual Growth Reduction (%) CHEAL
[13] = redroot pigweed (Amaranthus retroflexus), 14 Days After Application, read-out: Visual Growth Reduction (%) AMARE
[14] = wild oat (Avena fatua), 14 Days After Application, read-out: Visual Growth Reduction (%) AVEFA
[15] = yellow nutsedge (Cyperus esculentus), 14 Days After Application, read-out: Visual Growth Reduction (%) CYPES
[16] = ALOMY: blackgrass (Alopecurus myosuroides), 14 days after application, read-out: Visual Growth Reduction (%) 14 Days After Application, ALOMY
[17] = AMARE: redroot pigweed (Amaranthus retroflexus), 14 days after application, read-out: Visual Growth Reduction (%) 14 Days After Application, AMARE
[18] = AVEFA: wild oat (Avena fatua), 14 days after application, read-out: Visual Growth Reduction (%) 14 Days After Application, AVEFA
[19] = CHEAL: lambsquarters (Chenopodium album), 14 days after application, read-out: Visual Growth Reduction (%) 14 Days After Application, CHEAL
[20] = CIRAR: canada thistle (Cirsium arvense), 14 days after application, read-out: Visual Growth Reduction (%) 14 Days After Application, CIRAR
[21] = CYPES: yellow nutsedge (Cyperus esculentus), 14 days after application, read-out: Visual Growth Reduction (%) 14 Days After Application, CYPES
[22] = DIGSA: crabgrass (Digitaria sanguinalis), 14 days after application, read-out: Visual Growth Reduction (%) 14 Days After Application, DIGSA

SMILES | pest or weed control at 140 g/ha [1] | pest or weed control at 140 g/ha [2] | pest or weed control at 140 g/ha [3] | pest or weed control at 140 g/ha [4] | pest or weed control at 140 g/ha [5] | pest or weed control at 140 g/ha [6] | pest or weed control at 140 g/ha [7] | pest or weed control at 140 g/ha [8] | pest or weed control at 140 g/ha [9] | pest or weed control at 140 g/ha [10] | pest or weed control at 140 g/ha [11] | pest or weed control at 140 g/ha [12] | pest or weed control at 140 g/ha [13] | pest or weed control at 140 g/ha [14] | pest or weed control at 140 g/ha [15] | pest or weed control at 140 g/ha [16] | pest or weed control at 140 g/ha [17] | pest or weed control at 140 g/ha [18] | pest or weed control at 140 g/ha [19] | pest or weed control at 140 g/ha [20] | further results
COC(=O)c1nc(-c2cc(N)c(C(F)(F)F)cc2Cl)ccc1Cl [F211, methyl 6-(5-amino-2-chloro-4-(trifluoromethyl)phenyl)-3-chloropicolinate] | 60 to 74% | 95 to 100% | 75 to 84% | 0 to 29% | 45 to 59% | 60 to 74% | 0 to 29% | 0 to 29% | 0 to 29% | 85 to 94% | 30 to 44% | 95 to 100% | 85 to 94% | 0 to 29% | 0 to 29% | – | – | – | – | – | –
CCCCOC(=O)c1nc(-c2ccc(Br)c(OC)c2F)ccc1Cl [F283, Butyl 6-(4-bromo-2-fluoro-3-methoxyphenyl)-3-chloropicolinate] | 0 to 29% | 0 to 29% | 75 to 84% | 0 to 29% | 0 to 29% | 0 to 29% | 0 to 29% | 0 to 29% | 0 to 29% | 85 to 94% | 0 to 29% | 85 to 94% | 30 to 44% | 0 to 29% | 30 to 44% | – | – | – | – | – | –
COC(=O)c1nc(-c2ccc(C(F)(F)F)c(Br)c2Cl)ccc1Cl [F140, methyl 6-(3-bromo-2-chloro-4-(trifluoromethyl)phenyl)-3-chloropicolinate] | 0 to 29% | 95 to 100% | 0 to 29% | 0 to 29% | 75 to 84% | 85 to 94% | 0 to 29% | 0 to 29% | – | – | – | – | – | – | – | 0 to 29% | 85 to 94% | 0 to 29% | 85 to 94% | 45 to 59% | pest or weed control at 140 g/ha [21]: 0 to 29%; pest or weed control at 140 g/ha [22]: 85 to 94%
COC(=O)c1nc(-c2ccc(C(F)(F)F)c(SC)c2Cl)ccc1Cl [F121, methyl 3-chloro-6-(2-chloro-3-(methylthio)-4-(trifluoromethyl)phenyl)picolinate] | 0 to 29% | 0 to 29% | 0 to 29% | 0 to 29% | 0 to 29% | 0 to 29% | 0 to 29% | 0 to 29% | – | – | – | – | – | – | – | 0 to 29% | 30 to 44% | 0 to 29% | 0 to 29% | 0 to 29% | pest or weed control at 140 g/ha [21]: 0 to 29%; pest or weed control at 140 g/ha [22]: 0 to 29%
O=C(O)c1nc(-c2c(Cl)cc(C(F)(F)F)cc2Cl)ccc1Cl [F156, 3-Chloro-6-(2,6-dichloro-4-(trifluoromethyl)phenyl)picolinic acid] | 75 to 84% | 95 to 100% | 85 to 94% | 45 to 59% | 95 to 100% | 75 to 84% | 0 to 29% | 60 to 74% | – | – | – | – | – | – | – | 45 to 59% | 95 to 100% | 0 to 29% | 85 to 94% | 75 to 84% | pest or weed control at 140 g/ha [21]: 0 to 29%; pest or weed control at 140 g/ha [22]: 85 to 94%
COc1cc(C(F)(F)F)ccc1-c1ncc(Cl)c(C(=O)O)n1 [F366, 5-Chloro-2-(2-methoxy-4-(trifluoromethyl)phenyl)pyrimidine-4-carboxylic acid] | 75 to 84% | 95 to 100% | 0 to 29% | 0 to 29% | 75 to 84% | 75 to 84% | 0 to 29% | 0 to 29% | 0 to 29% | 30 to 44% | 75 to 84% | 85 to 94% | 75 to 84% | 0 to 29% | 0 to 29% | – | – | – | – | – | –
O=C(O)c1nc(-c2ccc3[nH]ccc3c2)c(F)cc1Cl [F199, 3-Chloro-5-fluoro-6-(1H-indol-5-yl)picolinic acid] | 0 to 29% | 0 to 29% | 0 to 29% | 0 to 29% | 0 to 29% | 0 to 29% | 0 to 29% | 0 to 29% | – | – | – | – | – | – | – | 0 to 29% | 0 to 29% | 0 to 29% | 30 to 44% | 0 to 29% | pest or weed control at 140 g/ha [21]: 0 to 29%; pest or weed control at 140 g/ha [22]: 0 to 29%
COC(=O)c1nc(-c2ccc(F)c(OC)c2)ccc1Cl [F292, Methyl 3-chloro-6-(4-fluoro-3-methoxyphenyl) picolinate] | 0 to 29% | 30 to 44% | 45 to 59% | 0 to 29% | 0 to 29% | 0 to 29% | 0 to 29% | 0 to 29% | 0 to 29% | 60 to 74% | 0 to 29% | 85 to 94% | 0 to 29% | 0 to 29% | 60 to 74% | – | – | – | – | – | –
COC(=O)c1nc(-c2ccc(Cl)c(C(F)F)c2F)ccc1Cl [F273, Methyl 3-chloro-6-(4-chloro-3-(difluoromethyl)-2-fluorophenyl) picolinate] | 0 to 29% | 75 to 84% | 0 to 29% | 0 to 29% | 0 to 29% | 75 to 84% | 0 to 29% | 0 to 29% | 0 to 29% | 30 to 44% | 60 to 74% | 75 to 84% | 0 to 29% | 0 to 29% | 0 to 29% | – | – | – | – | – | –
COC(=O)c1nc(-c2cc(Br)c(C(F)(F)F)cc2Cl)ccc1Cl [F151, Methyl 6-(5-bromo-2-chloro-4-(trifluoromethyl)phenyl)-3-chloropicolinate] | 0 to 29% | 95 to 100% | 45 to 59% | 0 to 29% | 0 to 29% | 95 to 100% | 0 to 29% | 0 to 29% | – | – | – | – | – | – | – | 0 to 29% | 95 to 100% | 0 to 29% | 95 to 100% | 45 to 59% | pest or weed control at 140 g/ha [21]: 0 to 29%; pest or weed control at 140 g/ha [22]: 0 to 29%
